Test results from patent publication US7767646B2, “Methods of screening for compounds that modulate TAFIa activity, compounds, and methods of using the compounds” (American Diagnostica, Inc., priority 2002, dated 2010).
Entries after “also recorded” stand apart in the source; their conditions may differ. Read-outs that look alike come from different tables or passages of the source.

How the values were obtained:
Type in all cases: biochemical
[1] = target: T1, TAFI (Homo sapiens, UniProt Q96IY4); assay: TAFI activation by thrombin/thrombomodulin, SDS-PAGE; conditions: aliquots after 20 minutes, SDS-PAGE (FIG. 4)
T1 construct: purchased Hematological Associates (Essex Junction, Vt.)
T1 sequence (Q96IY4 23-423 limits assumed): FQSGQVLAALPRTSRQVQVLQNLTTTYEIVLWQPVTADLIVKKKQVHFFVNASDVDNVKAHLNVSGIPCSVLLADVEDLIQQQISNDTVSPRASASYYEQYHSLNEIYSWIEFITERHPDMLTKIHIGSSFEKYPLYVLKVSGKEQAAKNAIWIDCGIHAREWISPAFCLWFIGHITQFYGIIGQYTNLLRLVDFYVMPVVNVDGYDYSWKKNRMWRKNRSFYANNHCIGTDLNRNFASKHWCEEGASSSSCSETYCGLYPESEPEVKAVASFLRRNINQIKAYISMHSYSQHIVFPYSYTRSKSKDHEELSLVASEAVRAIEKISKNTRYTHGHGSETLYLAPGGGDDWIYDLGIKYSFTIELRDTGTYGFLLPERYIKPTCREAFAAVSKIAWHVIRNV
Method: After 20 minutes, aliquots were removed and analyzed by SDS-PAGE. Lane 1. Acetylsalicylic acid; 2. Salicylic acid; 3. 4-hydroxybenzoic acid; 4. 2-hydroxybenzoic acid (salicyluric acid); 5. Ibuprofen; 6. Acetominophen; 7 Control with no addition; 8. TAFI.
Not only, then, do SA and SU inhibit enzyme activity, they also retard the generation of TAFIa. Without being bound by any theory, this provides a dual mechanism by which fibrinolysis is enhanced during high dose aspirin therapy. The proposed pathways by which aspirin and its major metabolites SA and SU enhance fibrinolysis through inhibition of TAFI is presented in FIG. 5. […] Undas et al., 2001, Blood 98:2423-31.

[2] = target: T2, TAFIa (Homo sapiens, UniProt Q96IY4); assay: TAFIa carboxypeptidase activity, ActiFLUOR TAFIa fluorescence-based assay; parameters: purchased American Diagnostica Inc. (Greenwich, Conn.) 3874TAFIa; conditions: for effect on TAFIa carboxypeptidase activity (residual TAFIa activity): incubation 1 hour at room temperature, various concentrations
T2 sequence (Q96IY4 115-423): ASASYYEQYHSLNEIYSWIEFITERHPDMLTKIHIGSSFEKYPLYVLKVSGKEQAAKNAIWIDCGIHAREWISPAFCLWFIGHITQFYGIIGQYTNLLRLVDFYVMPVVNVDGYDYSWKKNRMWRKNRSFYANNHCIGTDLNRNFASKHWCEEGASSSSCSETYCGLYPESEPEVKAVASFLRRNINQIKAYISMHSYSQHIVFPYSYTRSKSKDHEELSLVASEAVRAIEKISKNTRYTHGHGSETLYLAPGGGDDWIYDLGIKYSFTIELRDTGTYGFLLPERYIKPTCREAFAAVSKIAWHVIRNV
Method: Residual TAFIa activity was measured using ActiFLUOR TAFIa.
Residual TAFIa activity was measured using ActiFLUOR TAFIa. […] About 60% TAFIa activity is lost at 25 mM SA.
Materials. TAFI was purchased from Hematological Associates (Essex Junction, Vt.) and TAFIa (3874TAFIa) was from American Diagnostica Inc. (Greenwich, Conn.). Carboxypeptidase activity of TAFIa was determined using ACTIFLUOR™ TAFI (#874FX) a fluorescence-based assay from American Diagnostica (Greenwich, Conn.). ASA, SA and SU were obtained from Sigma Chemical Co. (St. Louis, Mo.).
Results. The present inventors have made the surprising discovery that ASA, SA and SU may shift the hemostatic balance toward a profibrinolytic state by inhibition of TAFIa, the major regulator of fibrinolysis. TAFIa was incubated with various concentrations of ASA, SA and SU for one hour, at room temperature. Residual TAFIa activity was measured using ActiFLUOR TAFIa. […] Catella-Lawson and coworkers recently reported that ibuprofen, taken prior to aspirin, blocks the irreversible inhibition of COX-1 by aspirin and abrogates the anti-platelet activity of aspirin. Catella-Lawson, F. et al., 2001, N. Engl. J. Med. 345(25):1809-17. Since ibuprofen has little effect on TAFI, it was reasonable to conclude that ibuprofen taken prior to aspirin would not block the profibrinolytic activity of aspirin caused by TAFI inhibition.

[3] = target: T2, TAFIa; assay: ActiScreen TAFI HTS assay (TAFIa carboxypeptidase, hippuryl-L-lysine/LOX/HRP); parameters: made in house; host or cells: native human TAFI (not recombinant)
Method: The activity of the chemical compounds was assessed in the ActiScreen® TAFI HTS assay, the principle of which is shown below.
The assay is run by mixing TAFIa and test compound in microtiter plate wells. “TAFI developer” is then added to start the reaction which is run at room temperature. The TAFI developer is formulated with hippuryl-L-lysine, lysine oxidase, horseradish peroxidase and ortho-phenylene-diamine. Hippuryl-L-lysine is converted by TAFIa to hippuric acid and L-lysine. Lysine-Oxidase (LOX) converts the lysine to 6-amino-2-oxo-hexanoic acid and hydrogen peroxide. The hydrogen peroxide is used along with ortho-phenylene-diamine […] as substrate for horseradish peroxidase. The reaction produces a yellow color that was monitored for Vmax in a spectrophotometer (SpectroMax 190, Molecular Devices, Sunnyvale, Calif.) in the kinetic mode at 450 nm.
The assay can also be run as an endpoint reaction in which the enzymatic reaction is stopped at a selected point in time with 0.5 M sulphuric acid. The resulting color is read at 490 nm. A TAFI inhibitor will block the first reaction in the cascade in which TAFIa converts hippuryl-L-lysine to hippuric acid and lysine, which finally results in a decrease in Vmax or OD 490 nm relative to control reaction without addition of test compound. The assay has been designed to be run in final concentrations of DMSO of up to 20%. A known inhibitor of TAFIa carboxypeptidase activity, potato tuber carboxypeptidase inhibitor (PTCI), is used as a positive control.
Positive hits were selected based upon the ability of compounds to inhibit carboxypeptidase activity of TAFIa, as measured in the ActiScreen assay. The major criterion for selection of “hits” was based on their potency, as determined by the concentration of compound that inhibits the activity of TAFIa in the Actiscreen TAFI assay by 50% (“IC50”).

[4] = target: T3, Carboxypeptidase N(CPN) (Homo sapiens, UniProt P15169); assay: Specificity against Carboxypeptidase N in pooled normal human plasma; conditions: PNP (1:10), serially diluted compound
T3 construct: pooled normal human plasma (PNP) was used as the source of CPN; from tissue; host or cells: pooled normal human plasma (PNP), diluted 1:10
T3 sequence (P15169 21-458): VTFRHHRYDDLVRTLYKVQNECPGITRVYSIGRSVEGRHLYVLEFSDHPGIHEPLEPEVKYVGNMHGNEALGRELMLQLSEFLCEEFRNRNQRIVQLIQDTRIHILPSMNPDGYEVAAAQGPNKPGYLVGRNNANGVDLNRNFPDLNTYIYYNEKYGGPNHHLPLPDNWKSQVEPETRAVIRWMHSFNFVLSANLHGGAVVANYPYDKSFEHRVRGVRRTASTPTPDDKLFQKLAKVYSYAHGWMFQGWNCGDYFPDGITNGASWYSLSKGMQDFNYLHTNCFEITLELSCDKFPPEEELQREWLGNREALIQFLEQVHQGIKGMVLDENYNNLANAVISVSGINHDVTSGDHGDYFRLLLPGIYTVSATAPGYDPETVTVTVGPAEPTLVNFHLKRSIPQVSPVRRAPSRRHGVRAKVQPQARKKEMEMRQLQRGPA
T3 sequence (P22792 22-545 partner): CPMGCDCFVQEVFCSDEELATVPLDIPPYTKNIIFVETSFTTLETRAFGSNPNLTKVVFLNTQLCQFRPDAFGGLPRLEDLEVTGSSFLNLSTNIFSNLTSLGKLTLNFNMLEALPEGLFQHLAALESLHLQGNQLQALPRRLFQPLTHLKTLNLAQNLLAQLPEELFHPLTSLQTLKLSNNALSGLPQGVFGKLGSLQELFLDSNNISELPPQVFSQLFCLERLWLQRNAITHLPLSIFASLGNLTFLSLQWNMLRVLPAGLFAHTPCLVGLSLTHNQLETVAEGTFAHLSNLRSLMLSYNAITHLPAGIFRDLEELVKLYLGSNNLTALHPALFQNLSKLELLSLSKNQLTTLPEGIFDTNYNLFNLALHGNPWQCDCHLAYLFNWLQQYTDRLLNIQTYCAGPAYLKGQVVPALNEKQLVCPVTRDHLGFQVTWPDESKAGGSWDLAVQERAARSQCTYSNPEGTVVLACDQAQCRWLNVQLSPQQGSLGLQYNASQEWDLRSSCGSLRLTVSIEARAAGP
Method: L278R was also tested for specificity against Carboxypeptidase N(CPN). CPN is the constituitively active carboxypeptidase B-like enzyme in plasma. In this study, pooled normal human plasma (PNP) was used as the source of CPN. The specificity studies were performed by adding PNP (1:10), ActiScreen developer and serially diluted test compound into microtiter wells. Inhibition of color development was an indication of inhibitory activity towards CPN.

[5] = test system: LOX/HRP; assay: Dereplication assay: reaction of LOX/HRP with lysine; conditions: concentrations 5-10 times greater than IC50 for TAFI
Method: Positive hits identified with the ActiScreen TAFI assay were dereplicated to ensure that the inhibition of color development is due to blocking of the first reaction of the linked enzyme system catalyzed by TAFIa and not to inhibition of LOX or HRP.
Compounds L278R and LT32 were tested in the dereplication assay, described above.

[6] = target: T2, TAFIa; assay: TAFIa inhibition with Actichrome 874 TAFI Developer (Vmax); parameters: purchased American Diagnostica Inc. (Greenwich, Conn.) 3874TAFIa; conditions: different concentrations, Vmax (FIG. 6)
Method: Different concentrations of gentisic acid (GA) were incubated with TAFIa and Actichrome 874 TAFI Developer. TAFI activity (Vmax) was determined.

CC(=O)Oc1ccccc1C(=O)O [ASA, acetylsalicylic acid]
effect on activation of TAFI to TAFIa by thrombin/thrombomodulin [1]: did not appear to have a significantly effect | concentration at which significant inhibition of TAFI activity occurs ([2]; incubation 1 hour at room temperature (FIG. 1)): ~600 µg/mL | effect on TAFIa carboxypeptidase activity (residual TAFIa activity) [2]: directly inhibited; also recorded: inhibited in a dose-dependent manner

O=C(N[C@H](CO)Cc1ccccc1)c1cc(O)ccc1O [JV59, N-[(S)-1-hydroxy-3-phenyl-2-propyl]-2,5-dihdroxybenzamide]
IC50 [3]: 44 µM

NCCCNC(=O)OCCNC(=O)c1ccccc1O [L278R, 2-(2-hydroxybenzoylamino)ethyl N-(3-aminopropyl)carbamate]
IC50 ([3]; TAFIa preincubated with compound 1 hour at 4° C. prior to assay): 890 µM | type of inhibition of TAFIa ([3]; no preincubation): competitive type inhibitor | IC50 ([3]; no preincubation, assay as in Example 3): 1540 µM | type of inhibition of TAFIa ([3]; preincubated 1 hour at 4° C.): non-competitive-type inhibitor | inhibition of CPN [4]: did not inhibit CPN | effect on reaction rate (Vmax) of LOX/HRP with lysine [5]: Neither of the compounds had a significant effect

O=C(NCCNC(=O)c1cc(OCc2ccccc2)ccc1OCc1ccccc1)OCCNC(=O)c1ccccc1O [LT32]
IC50 [3]: 225 µM | type of inhibition of TAFIa ([3]; no preincubation): competitive inhibitor | effect on reaction rate (Vmax) of LOX/HRP with lysine [5]: Neither of the compounds had a significant effect

O=C(O)c1ccccc1O [SA, salicylic acid]
effect on activation of TAFI to TAFIa by thrombin/thrombomodulin [1]: inhibit activation of TAFI to TAFIa | effect on activation of TAFI to TAFIa by thrombin/thrombomodulin ([1]; listed as salicylic acid): inhibit the activation of TAFI | TAFIa activity lost ([2]; 25 mM, room temperature, 1 hour (FIG. 3)): About 60% | effect on TAFIa carboxypeptidase activity (residual TAFIa activity) [2]: directly inhibited; also recorded: inhibited in a dose-dependent manner

O=C(O)CNC(=O)c1ccccc1O [SU, salicyluric acid (2-hydroxyhippuric acid)]
effect on activation of TAFI to TAFIa by thrombin/thrombomodulin [1]: inhibit activation of TAFI to TAFIa | effect on activation of TAFI to TAFIa by thrombin/thrombomodulin ([1]; listed as 2-hydroxybenzoic acid (salicyluric acid)): inhibit the activation of TAFI | rank of potency as TAFIa inhibitor ([2]; SU vs SA vs ASA, 1 hour at room temperature): most effective inhibitor | effect on TAFIa carboxypeptidase activity (residual TAFIa activity) [2]: directly inhibited; also recorded: inhibited in a dose-dependent manner

CC(=O)Nc1ccc(O)cc1 [acetominophen]
effect on TAFIa carboxypeptidase activity (residual TAFIa activity) [2]: little inhibitory effect

O=C(O)c1cc(O)ccc1O [gentisic acid]
type of inhibition of TAFIa [6]: competitive inhibition

CC(C)Cc1ccc(C(C)C(=O)O)cc1 (stereo not drawn) [ibuprofen]
effect on TAFIa carboxypeptidase activity (residual TAFIa activity) [2]: little inhibitory effect
